Reference: patent publication US8415469B2, “Compounds and methods for kinase modulation, and indications therefor” (Plexxikon Inc., priority 2005, dated 2013)

Experiments:
Type in all cases: biochemical
Pyk2 = biological target: T1, Pyk2 (Homo sapiens, UniProt Q14289); assay: AlphaScreen kinase assay, Pyk2; settings: read-out: IC50, activity toward kinase Pyk2
T1 construct: purchased Upstate Biotechnology

Jnk2 = biological target: T2, Jnk2 (Homo sapiens, UniProt P45984); assay: AlphaScreen kinase assay, Jnk2; settings: read-out: IC50, activity toward kinase Jnk2
T2 construct: purchased Roche Protein Expression Group (Indianapolis, IN)
Procedure, shortened: (§1)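 Uses phospho-specific antibody on acceptor beads plus streptavidin donor beads capturing biotinylated peptide substrate; singlet oxygen from donor excites nearby acceptor. Inhibitors tested in 8-point, 1:3 titrations starting from 20 mM DMSO solutions.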

Flt1 = biological target: T3, Flt1 (Homo sapiens, UniProt P17948); assay: AlphaScreen kinase assay, Flt1; settings: read-out: IC50, activity toward kinase Flt1
T3 construct: P1826.pETN6 BI-PTP FLT1 M799-D1165-X WT; His6 (N); made in house; host or cells: E. coli (PTP1B co-expressed)
T3 sequence (P17948 with tags, fused parts or gaps): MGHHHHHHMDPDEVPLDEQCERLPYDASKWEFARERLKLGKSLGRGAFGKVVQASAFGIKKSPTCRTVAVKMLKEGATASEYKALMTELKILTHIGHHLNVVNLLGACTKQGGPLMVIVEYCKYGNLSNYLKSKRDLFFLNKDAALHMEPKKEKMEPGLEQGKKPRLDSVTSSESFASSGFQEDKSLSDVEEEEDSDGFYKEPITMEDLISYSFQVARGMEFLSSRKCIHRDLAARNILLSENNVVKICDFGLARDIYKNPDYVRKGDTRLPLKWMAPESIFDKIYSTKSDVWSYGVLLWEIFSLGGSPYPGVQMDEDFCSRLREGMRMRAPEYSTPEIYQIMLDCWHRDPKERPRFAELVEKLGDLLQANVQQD

MAP2K1 = biological target: T4, MAP2K1 (Homo sapiens, UniProt Q02750); assay: Z'-Lyte FRET kinase assay (Invitrogen), MAP2K1; settings: read-out: IC50, activity toward kinase MAP2K1
T4 construct: purchased Invitrogen (assay run by Invitrogen)

Jak3 = biological target: T5, Jak3 (Homo sapiens, UniProt P52333); assay: AlphaScreen kinase assay, Jak3; settings: read-out: IC50, activity toward kinase Jak3
T5 sequence (P52333 1-1124): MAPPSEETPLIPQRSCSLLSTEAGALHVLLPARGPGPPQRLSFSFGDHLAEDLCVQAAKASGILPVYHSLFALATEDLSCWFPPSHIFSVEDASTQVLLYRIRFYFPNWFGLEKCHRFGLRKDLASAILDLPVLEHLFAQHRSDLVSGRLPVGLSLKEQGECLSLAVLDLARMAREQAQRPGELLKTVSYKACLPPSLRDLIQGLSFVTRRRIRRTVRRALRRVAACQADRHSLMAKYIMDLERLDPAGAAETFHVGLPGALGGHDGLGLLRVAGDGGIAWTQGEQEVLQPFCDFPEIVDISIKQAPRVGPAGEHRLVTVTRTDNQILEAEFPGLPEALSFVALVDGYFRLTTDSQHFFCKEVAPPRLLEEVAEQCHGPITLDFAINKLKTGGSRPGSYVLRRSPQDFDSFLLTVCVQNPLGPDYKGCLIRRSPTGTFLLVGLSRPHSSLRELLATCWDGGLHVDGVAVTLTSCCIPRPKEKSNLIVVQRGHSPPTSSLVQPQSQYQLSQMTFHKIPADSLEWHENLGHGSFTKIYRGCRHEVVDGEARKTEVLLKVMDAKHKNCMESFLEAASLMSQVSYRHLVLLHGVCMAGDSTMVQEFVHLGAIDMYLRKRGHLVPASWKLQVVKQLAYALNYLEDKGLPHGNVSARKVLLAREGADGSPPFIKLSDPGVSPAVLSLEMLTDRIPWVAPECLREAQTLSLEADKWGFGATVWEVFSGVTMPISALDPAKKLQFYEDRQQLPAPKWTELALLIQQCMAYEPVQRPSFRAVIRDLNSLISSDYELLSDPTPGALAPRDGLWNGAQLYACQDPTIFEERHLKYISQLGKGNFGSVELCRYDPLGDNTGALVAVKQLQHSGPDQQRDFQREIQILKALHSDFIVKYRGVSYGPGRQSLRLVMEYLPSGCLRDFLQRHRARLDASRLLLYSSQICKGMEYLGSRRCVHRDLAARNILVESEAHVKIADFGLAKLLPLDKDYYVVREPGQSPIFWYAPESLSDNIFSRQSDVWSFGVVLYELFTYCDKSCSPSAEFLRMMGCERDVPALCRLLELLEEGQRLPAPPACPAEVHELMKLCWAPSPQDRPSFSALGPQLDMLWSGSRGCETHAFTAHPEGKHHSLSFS
Procedure, shortened: as §1

Flt4 = biological target: T6, Flt4 (Homo sapiens, UniProt P35916); assay: AlphaScreen kinase assay, Flt4; settings: read-out: IC50, activity toward kinase Flt4
T6 construct: purchased ProQinase GmbH (Freiburg, Germany)
Procedure, shortened: as §1

T1 sequence (Q14289 whole entry): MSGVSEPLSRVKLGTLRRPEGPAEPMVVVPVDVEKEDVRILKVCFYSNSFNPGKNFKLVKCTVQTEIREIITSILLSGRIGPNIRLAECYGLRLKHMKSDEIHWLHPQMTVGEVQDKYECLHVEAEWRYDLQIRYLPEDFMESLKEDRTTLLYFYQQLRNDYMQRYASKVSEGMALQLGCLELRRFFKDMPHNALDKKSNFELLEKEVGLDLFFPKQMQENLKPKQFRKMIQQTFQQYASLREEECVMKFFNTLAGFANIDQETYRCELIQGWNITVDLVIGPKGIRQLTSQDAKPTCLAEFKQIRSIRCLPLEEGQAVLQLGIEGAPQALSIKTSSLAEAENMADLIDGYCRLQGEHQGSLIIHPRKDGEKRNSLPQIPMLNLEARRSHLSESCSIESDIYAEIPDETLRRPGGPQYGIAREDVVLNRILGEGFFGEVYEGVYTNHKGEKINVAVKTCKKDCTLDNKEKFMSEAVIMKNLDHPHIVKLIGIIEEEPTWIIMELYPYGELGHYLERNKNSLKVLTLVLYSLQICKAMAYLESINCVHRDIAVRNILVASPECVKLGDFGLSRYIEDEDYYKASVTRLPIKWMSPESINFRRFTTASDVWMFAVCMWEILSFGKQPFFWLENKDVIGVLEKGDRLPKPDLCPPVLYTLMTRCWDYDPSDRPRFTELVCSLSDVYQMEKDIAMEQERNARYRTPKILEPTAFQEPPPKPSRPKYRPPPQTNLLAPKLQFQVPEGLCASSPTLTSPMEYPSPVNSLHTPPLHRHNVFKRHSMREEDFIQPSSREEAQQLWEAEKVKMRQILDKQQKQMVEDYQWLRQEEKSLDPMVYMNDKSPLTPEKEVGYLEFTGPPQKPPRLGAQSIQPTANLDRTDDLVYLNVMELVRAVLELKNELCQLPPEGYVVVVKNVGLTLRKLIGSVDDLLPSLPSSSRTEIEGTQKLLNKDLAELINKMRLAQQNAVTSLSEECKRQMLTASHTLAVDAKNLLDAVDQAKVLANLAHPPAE
T4 sequence (Q02750 whole entry): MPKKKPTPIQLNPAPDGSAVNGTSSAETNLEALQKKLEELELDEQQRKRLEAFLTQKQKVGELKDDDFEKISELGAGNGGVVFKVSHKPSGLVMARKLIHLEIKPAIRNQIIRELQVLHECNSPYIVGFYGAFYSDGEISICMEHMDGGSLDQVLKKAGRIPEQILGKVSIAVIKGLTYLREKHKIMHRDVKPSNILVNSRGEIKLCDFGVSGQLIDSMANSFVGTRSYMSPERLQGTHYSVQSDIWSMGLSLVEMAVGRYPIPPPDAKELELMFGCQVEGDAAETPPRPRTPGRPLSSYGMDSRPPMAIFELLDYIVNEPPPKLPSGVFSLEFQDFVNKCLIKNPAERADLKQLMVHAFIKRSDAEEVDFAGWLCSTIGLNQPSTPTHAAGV
T6 sequence (P35916 25-1363): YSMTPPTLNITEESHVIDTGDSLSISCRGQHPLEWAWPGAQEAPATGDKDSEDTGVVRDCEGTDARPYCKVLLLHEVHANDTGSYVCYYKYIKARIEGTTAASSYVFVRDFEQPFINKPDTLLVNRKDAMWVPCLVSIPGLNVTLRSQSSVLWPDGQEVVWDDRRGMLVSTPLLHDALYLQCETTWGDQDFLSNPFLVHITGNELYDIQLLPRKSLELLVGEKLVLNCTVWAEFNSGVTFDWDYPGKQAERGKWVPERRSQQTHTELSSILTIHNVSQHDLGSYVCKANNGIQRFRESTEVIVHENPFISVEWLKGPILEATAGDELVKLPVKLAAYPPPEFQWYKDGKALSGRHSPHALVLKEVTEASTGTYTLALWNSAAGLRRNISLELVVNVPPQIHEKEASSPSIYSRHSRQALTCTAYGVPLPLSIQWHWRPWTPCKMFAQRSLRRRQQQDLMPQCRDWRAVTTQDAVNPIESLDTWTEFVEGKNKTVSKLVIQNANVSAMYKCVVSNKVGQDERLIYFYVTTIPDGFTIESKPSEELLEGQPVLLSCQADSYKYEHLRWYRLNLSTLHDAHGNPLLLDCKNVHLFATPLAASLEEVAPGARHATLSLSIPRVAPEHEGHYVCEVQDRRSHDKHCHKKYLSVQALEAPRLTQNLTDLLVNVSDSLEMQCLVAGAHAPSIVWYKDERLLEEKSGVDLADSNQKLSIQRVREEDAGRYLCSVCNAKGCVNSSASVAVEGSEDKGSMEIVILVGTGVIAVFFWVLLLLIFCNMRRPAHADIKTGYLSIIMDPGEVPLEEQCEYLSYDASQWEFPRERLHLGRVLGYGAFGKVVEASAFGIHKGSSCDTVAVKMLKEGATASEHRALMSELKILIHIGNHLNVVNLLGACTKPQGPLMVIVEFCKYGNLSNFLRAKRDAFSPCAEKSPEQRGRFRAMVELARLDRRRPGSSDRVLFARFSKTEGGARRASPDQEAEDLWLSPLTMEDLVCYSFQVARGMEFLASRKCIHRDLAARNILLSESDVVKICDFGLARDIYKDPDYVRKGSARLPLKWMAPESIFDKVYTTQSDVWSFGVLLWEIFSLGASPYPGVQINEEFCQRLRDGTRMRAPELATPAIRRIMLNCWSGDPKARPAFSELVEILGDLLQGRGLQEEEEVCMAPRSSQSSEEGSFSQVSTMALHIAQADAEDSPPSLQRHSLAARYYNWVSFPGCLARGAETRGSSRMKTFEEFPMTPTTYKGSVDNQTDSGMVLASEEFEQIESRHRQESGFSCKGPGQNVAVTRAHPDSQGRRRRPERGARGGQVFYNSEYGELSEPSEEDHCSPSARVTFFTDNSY
T2 sequence (P45984 whole entry): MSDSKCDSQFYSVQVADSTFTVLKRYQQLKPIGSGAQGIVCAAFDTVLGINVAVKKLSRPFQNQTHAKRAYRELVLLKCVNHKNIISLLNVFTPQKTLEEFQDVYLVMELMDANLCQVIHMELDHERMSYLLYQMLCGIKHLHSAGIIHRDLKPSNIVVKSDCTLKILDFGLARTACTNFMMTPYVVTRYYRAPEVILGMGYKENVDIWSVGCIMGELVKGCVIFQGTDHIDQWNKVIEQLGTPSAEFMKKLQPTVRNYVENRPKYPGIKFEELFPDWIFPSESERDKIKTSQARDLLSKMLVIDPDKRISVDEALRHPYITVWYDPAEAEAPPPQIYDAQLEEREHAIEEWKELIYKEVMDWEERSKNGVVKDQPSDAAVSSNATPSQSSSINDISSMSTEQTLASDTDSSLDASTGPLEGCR

IC50 (Pyk2) [µM] | IC50 (Jnk2) [µM] | IC50 (Flt1) [µM] | IC50 (MAP2K1) [µM] | SMILES | also measured
≤ 10 | ≤ 10 | – | – | Oc1cccc(Cc2c[nH]c3ncc(-c4cccs4)cc23)c1F [Compound P-0052, 2-Fluoro-3-(5-thiophen-2-yl-1H-pyrrolo[2,3-b]pyridin-3-ylmethyl)-phenol] | –
– | – | ≤ 10 | – | O=C(c1cc(O)ccc1F)c1c[nH]c2ncc(Br)cc12 [Compound P-0068, (5-Bromo-1H-pyrrolo[2,3-b]pyridin-3-yl)-(2-fluoro-5-hydroxy-phenyl)-methanone] | –
– | – | ≤ 10 | – | Cc1c(O)cccc1C(=O)c1c[nH]c2ncc(Br)cc12 [Compound P-0055, (5-Bromo-1H-pyrrolo[2,3-b]pyridin-3-yl)-(3-hydroxy-2-methyl-phenyl)-methanone] | –
– | ≤ 10 | ≤ 10 | – | O=C(O)/C=C/c1cccc(-c2cnc3[nH]cc(C(=O)c4ccccc4F)c3c2)c1 [Compound P-0033] | –
≤ 10 | – | ≤ 10 | – | O=C(c1ccc(O)cc1Cl)c1c[nH]c2ncccc12 [Compound P-0021] | –
– | – | ≤ 10 | ≤ 10 | Cc1ccccc1C(=O)c1c[nH]c2nccc(-c3ccc(C(N)=O)cc3)c12 [Compound P-0017] | –
– | – | ≤ 10 | – | Cc1ccc(S(=O)(=O)NCc2c[nH]c3nccc(-c4cccc(C#N)c4)c23)cc1 [Compound P-0072] | –
≤ 10 | – | – | ≤ 10 | Cc1ccc(S(=O)(=O)NCc2c[nH]c3ncccc23)cc1 [Compound P-0058] | –
≤ 10 | – | – | ≤ 10 | CCCS(=O)(=O)Nc1ccc(F)c(C(=O)c2c[nH]c3ncc(OC)cc23)c1F [Compound P-0806, Propane-1-sulfonic acid [2,4-difluoro-3-(5-methoxy-1H-pyrrolo[2,3-b]pyridine-3-carbonyl)-phenyl]-amide] | –
– | – | – | – | O=C(c1cc(F)ccc1F)c1c[nH]c2nccc(-c3cccnc3)c12 [Compound P-0063] | IC50 (Jak3): ≤ 10 µM
– | – | ≤ 10 | ≤ 10 | O=C(c1cccc(O)c1)c1c[nH]c2nccc(Cl)c12 [Compound P-0012] | IC50 (Flt4): ≤ 10 µM
≤ 10 | ≤ 10 | – | ≤ 10 | COc1ccc(C(=O)c2c[nH]c3ncc(-c4cccc(/C=C/C(=O)O)c4)cc23)c(Cl)c1 [Compound P-0015] | –
– | ≤ 10 | ≤ 10 | – | COc1ccc(F)c(C(=O)c2c[nH]c3ncc(-c4cccnc4)cc23)c1 [Compound P-0090] | IC50 (Flt4): ≤ 10 µM
– | ≤ 10 | ≤ 10 | – | CCCCNC(=O)Nc1ccc(F)c(C(=O)c2c[nH]c3ncc(-c4cccnc4)cc23)c1F [Compound P-1318, 1-Butyl-3-[2,4-difluoro-3-(5-pyridin-3-yl-1H-pyrrolo[2,3-b]pyridine-3-carbonyl)-phenyl]-urea] | –
≤ 10 | ≤ 10 | ≤ 10 | – | Oc1cccc(Cc2c[nH]c3ncc(-c4ccsc4)cc23)c1 [Compound P-0056] | –
– | ≤ 10 | ≤ 10 | – | Cc1c(NS(C)(=O)=O)cccc1C(=O)c1c[nH]c2ncc(-c3ccccc3)cc12 [Compound P-0082, N-[2-Methyl-3-(5-phenyl-1H-pyrrolo[2,3-b]pyridine-3-carbonyl)-phenyl]-methanesulfonamide] | –
– | – | ≤ 10 | – | COc1cc(OC)cc(C(=O)c2c[nH]c3ncc(-c4cccc(NS(C)(=O)=O)c4)cc23)c1 [Compound P-1426, N-{3-[3-(3,5-Dimethoxy-benzoyl)-1H-pyrrolo[2,3-b]pyridin-5-yl]-phenyl}-methanesulfonamide] | –
≤ 10 | – | ≤ 10 | – | CN(C)S(=O)(=O)Nc1ccc(F)c(Cc2c[nH]c3ncc(-c4cccnc4)cc23)c1F [Compound P-0166] | –

IC50 (Pyk2) [µM] | IC50 (Jnk2) [µM] | IC50 (Flt1) [µM] | IC50 (MAP2K1) [µM] | SMILES | also measured
– | – | ≤ 10 | – | CS(=O)(=O)c1cccc(-c2cnc3[nH]cc(C(=O)c4cccc(O)c4F)c3c2)c1 [Compound P-0026, (2-Fluoro-3-hydroxy-phenyl)-[5-(3-methanesulfonylphenyl)1H-pyrrolo[2,3-b]pyridin-3-yl]-methanone] | –
≤ 10 | ≤ 10 | ≤ 10 | – | CCCS(=O)(=O)Nc1ccc(F)c(C(=O)c2c[nH]c3ncc(-c4cccnc4)cc23)c1F [Compound P-0088, Propane-1-sulfonic acid [2,4-difluoro-3-(5-pyridin-3-yl-1H-pyrrolo[2,3-b]pyridine-3-carbonyl)-phenyl]-amide] | –
≤ 10 | – | ≤ 10 | – | CCCS(=O)(=O)Nc1ccc(F)c(C(=O)c2c[nH]c3ncc(-c4ccccc4)cc23)c1F [Compound P-0636, Propane-1-sulfonic acid [2,4-difluoro-3-(5-phenyl-1H-pyrrolo[2,3-b]pyridine-3-carbonyl)-phenyl]-amide] | –
– | ≤ 10 | – | – | Cc1ccc(F)cc1C(=O)c1c[nH]c2ncc(-c3cccc(N)c3)cc12 [Compound P-0040] | IC50 (Flt4): ≤ 10 µM
≤ 10 | – | – | – | CCCC(=O)Nc1ccc(F)c(Cc2c[nH]c3ncc(-c4cccnc4)cc23)c1F [Compound P-1280] | –
≤ 10 | – | ≤ 10 | – | Oc1ccc(F)c(Cc2c[nH]c3ncc(-c4cccnc4)cc23)c1F [Compound P-0078, 2,4-difluoro-3-(5-pyridin-3-yl-1H-pyrrolo[2,3-b]pyridin-3-ylmethyl)-phenol] | –
– | – | ≤ 10 | – | O=C(c1ccccc1F)c1c[nH]c2ncc(-c3ccsc3)cc12 [Compound P-0134] | –
≤ 10 | ≤ 10 | ≤ 10 | ≤ 10 | CC(=O)Nc1cccc(-c2cnc3[nH]cc(C(=O)c4cc(O)ccc4F)c3c2)c1 [Compound P-0001] | IC50 (Flt4): ≤ 10 µM
≤ 10 | – | – | – | O=C(Nc1ccc(Cc2c[nH]c3ncccc23)cc1)Nc1cccc(C(F)(F)F)c1 [Compound P-0262, 1-[4-(1H-Pyrrolo[2,3-b]pyridin-3-ylmethyl)-phenyl]-3-(3-trifluoromethyl-phenyl)-urea] | –
– | – | ≤ 10 | ≤ 10 | O=C(c1cccc(O)c1)c1c[nH]c2ncccc12 [Compound P-0011] | IC50 (Flt4): ≤ 10 µM
– | – | – | ≤ 10 | Nc1ccnc2[nH]cc(C(=O)c3ccccc3)c12 [Compound P-0029] | IC50 (Flt4): ≤ 10 µM
– | – | – | – | Oc1cc(O)cc(Cc2c[nH]c3ncc(-c4ccsc4)cc23)c1 [Compound P-0093] | IC50 (Flt4): ≤ 10 µM
≤ 10 | – | – | ≤ 10 | O=C(O)/C=C/c1cccc(-c2cnc3[nH]cc(C(=O)c4cc(O)ccc4F)c3c2)c1 [Compound P-0010] | –
– | – | ≤ 10 | – | Cc1c(O)cccc1C(=O)c1c[nH]c2ncc(-c3cccs3)cc12 [Compound P-0114, (3-Hydroxy-2-methyl-phenyl)-(5-thiophen-2-yl-1H-pyrrolo[2,3b]pyridin-3-yl)-methanone] | –
≤ 10 | – | ≤ 10 | ≤ 10 | Cn1cc(C(F)(F)F)c(-c2ccc(S(=O)(=O)NCc3c[nH]c4ncccc34)s2)n1 [Compound P-0041] | IC50 (Flt4): ≤ 10 µM
– | ≤ 10 | ≤ 10 | ≤ 10 | O=C(c1cc(O)ccc1F)c1c[nH]c2ncccc12 [Compound P-0005] | IC50 (Flt4): ≤ 10 µM
≤ 10 | – | ≤ 10 | – | O=C(c1cc(O)ccc1F)c1c[nH]c2ncc(-c3cccs3)cc12 [Compound P-0032] | IC50 (Flt4): ≤ 10 µM
